From patent US20090118314A1, “TUMOR SUPPRESSOR” (JAPAN AS REPRESENTED BY DIRECTOR GENERAL OF AGENCY CENTER, priority 2006, published 2009)

Columns and labels:
[1] = test system: Min mice; assay: Cancer suppression test (intestinal polyp development) in Min mice; type: in vivo; settings: male Min mice, 100 ppm in feed, sacrificed at 15 weeks old
Text: That is to say, the inventors used, as a test system, familial adenomatous polyposis (FAP) model mice (Apc gene hetero-deficient mice) belonging to a high risk group of large intestinal cancer. These model mice have two characteristics. […] Thus, this mouse can be used as an experimental animal model useful for examining the relationship between a hyperlipidemia condition and large intestinal cancer. In this test, based on the fact that expression of PAI-1 was increased in the polyps of FAP patients and that expression of PAI-1 was induced by triglyceride, the action of suppressing the development of intestinal polyps of a PAI-1-inhibiting compound was evaluated using Min mice that were one type of Apc gene-deficient mice.
5-week-old male Min mice (CLEA Japan, Inc.) were purchased. After giving a basic feed (AIN-76A) to the mice for 1 week, 100 ppm of a test substance was mixed into the feed, and the mixed feed was then given to the mice. On the other hand, in the case of wild-type mice also, the same amount of the test substance was mixed into the feed, and the mixed feed was then given to the wild-type mice. The body weight and the feed intake were measured every week. The mice were sacrificed under anesthesia, when they were 15 weeks old. Then, the weights of main organs (spleen and heart) were measured. Small intestine and large intestine were washed and were then excised in a longitudinal direction, followed by fixing with formalin. The number of intestinal polyps in the small intestine and large intestine were counted and the size thereof were measured under a stereoscopic microscope.

[2] = target: PAI-1 (Homo sapiens, UniProt P05121); assay: PAI-1 inhibitory activity using synthetic substrate S-2288; type: biochemical
Text: PAI-1 inhibitory activity can be measured using a synthetic substrate S-2288 according to the methods described in International Publication WO04/011442 pamphlet, International Publication WO04/10996 pamphlet, JP-A-2004-250401, etc.

Chain of PAI-1 (P05121 24-402, species assumed): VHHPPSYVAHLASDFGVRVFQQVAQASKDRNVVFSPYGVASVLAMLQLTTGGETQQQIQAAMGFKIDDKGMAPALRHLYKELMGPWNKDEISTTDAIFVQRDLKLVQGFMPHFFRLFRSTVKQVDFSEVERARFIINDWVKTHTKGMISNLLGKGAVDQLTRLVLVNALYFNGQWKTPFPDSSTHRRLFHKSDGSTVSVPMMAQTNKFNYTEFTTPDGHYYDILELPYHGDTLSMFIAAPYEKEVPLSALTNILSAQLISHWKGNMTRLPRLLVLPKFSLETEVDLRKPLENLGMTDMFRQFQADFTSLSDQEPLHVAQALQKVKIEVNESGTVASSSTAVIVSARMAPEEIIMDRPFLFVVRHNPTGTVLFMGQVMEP

| SMILES | IC50 [2] [nM] | other results |
| --- | --- | --- |
| CC(C)(C)c1ccc2oc(-c3ccc4cc(OCCCCCC(C(=O)O)C(=O)O)ccc4c3)nc2c1 [Compound No. 20, [5-[[6-[5-(1,1-dimethylethyl)-2-benzoxazolyl]-2-naphthalenyl]oxy]pentyl]propanedioic acid] | 440 | development of intestinal polyps in the proximal portion of small intestine [1]: suppressed particularly strongly; distribution of the polyp size [1]: a decrease in the size was observed overall; polyps with a diameter size of 1 mm or less [1]: significantly decreased; weight of heart (indicator of anemia caused by bleeding associated with intestinal polyps) [1]: significantly reduced; weight of spleen (indicator of anemia caused by bleeding associated with intestinal polyps) [1]: significantly reduced; total number of polyps per mouse, decreased to ([1]; small and large intestine): approximately 66% |
| O=C(O)C(CCCCCOc1ccc2cc(-c3nc(-c4ccccc4)c(-c4ccccc4)o3)ccc2c1)C(=O)O [compound 6, [5-[[6-(4,5-diphenyl-2-oxazolyl)-2-naphthalenyl]oxy]pentyl]propanedioic acid] | 940 | – |
| Cc1ccc(-c2nc(-c3ccc4cc(OCCCCCC(C(=O)O)C(=O)O)ccc4c3)oc2-c2ccc(C)cc2)cc1 [compound 7, [5-[[6-[4,5-bis(4-methylphenyl)-2-oxazolyl]-2-naphthalenyl]oxy]pentyl]propanedioic acid] | 590 | – |
| O=C(O)C(CCCOc1ccc2cc(-c3nc4cc(-c5ccccc5)ccc4o3)ccc2c1)C(=O)O [compound 13, [3-[[6-(5-phenyl-2-benzoxazolyl)-2-naphthalenyl]oxy]propyl]propanedioic acid] | 540 | – |
| O=C(O)C(CCCCCOc1ccc2cc(-c3nc4ccc(OCC5CCCCC5)cc4o3)ccc2c1)C(=O)O [compound 23, [5-[[6-[6-(cyclohexylmethoxy)-2-benzoxazolyl]-2-naphthalenyl]oxy]pentyl]propanedioic acid] | 390 | – |
| O=C(O)C(CCCCCOc1ccc2cc(-c3nc4ccc(OCc5ccccc5)cc4o3)ccc2c1)C(=O)O [compound 24, [5-[[6-[6-(phenylmethoxy)-2-benzoxazolyl]-2-naphthalenyl]oxy]pentyl]propanedioic acid] | 540 | – |
| COc1ccc(-c2cc(OCc3ccccc3F)nc(-c3ccc4cc(OCCCC(C(=O)O)C(=O)O)ccc4c3)n2)cc1 [compound 43, [3-[[6-[4-[(2-fluorophenyl)methoxy]-6-(4-methoxyphenyl)-2-pyrimidinyl]-2-naphthalenyl]oxy]propyl]propanedioic acid] | 860 | – |

Stronger by IC50 [2], values ahead:

| IC50 [2] [nM] | SMILES | other results |
| --- | --- | --- |
| 350 | O=C(O)C(CCCCCOc1ccc2cc(-c3nc(OCc4ccccc4)cc(-c4ccccc4)n3)ccc2c1)C(=O)O [compound 47, [5-[[6-[4-phenyl-6-(phenylmethoxy)-2-pyrimidinyl]-2-naphthalenyl]oxy]pentyl]propanedioic acid] | – |
| 320 | CC(C)(C)c1cc(OCC2CCCCC2)nc(-c2ccc3cc(OCCCCCC(C(=O)O)C(=O)O)ccc3c2)n1 [compound 48, [5-[[6-[4-cyclohexylmethoxy-6-(1,1-dimethylethyl)-2-pyrimidinyl]-2-naphthalenyl]oxy]pentyl]propanedioic acid] | – |
| 290 | CC(C)(C)c1cc(OCc2ccc(F)cc2)nc(-c2ccc3cc(OCCCCCC(C(=O)O)C(=O)O)ccc3c2)n1 [compound 49, [5-[[6-[4-(1,1-dimethylethyl)-6-[(4-fluorophenyl)methoxy]-2-pyrimidinyl]-2-naphthalenyl]oxy]pentyl]propanedioic acid] | – |
| 220 | CC(C)(C)c1cc(OCc2ccccc2Cl)nc(-c2ccc3cc(OCCCCCC(C(=O)O)C(=O)O)ccc3c2)n1 [compound 50, [5-[[6-[4-[(2-chlorophenyl)methoxy]-6-(1,1-dimethylethyl)-2-pyrimidinyl]-2-naphthalenyl]oxy]pentyl]propanedioic acid] | – |
